Reference: paper PMC7804203, “Targeting adaptor protein SLP76 of RAGE as a therapeutic approach for lethal sepsis” (Nature Communications, 2021)

What was measured:
[1] = test system: TNF secretion, RAW264.7 cells; assay: ELISA of TNF from RAW264.7 cells pretreated with kinase inhibitors; type: cell-based
Method: (§1) Serum was separated from patient samples for measurement of AGEs with an ELISA kit (#MBS267540, MyBioSource, San Diego, CA, USA) according to the manufacturer’s instructions. […] Then, cultured cells were incubated with or without AGEs (100 μg/ml) for 12 h, and the supernatant was collected for the measurement of TNF (#MTA00B) and IL-6 (#M6000B) levels with ELISA kits (R&D Systems, Minneapolis, MN, USA) according to the manufacturer’s instructions.

[2] = test system: IL-6 secretion, RAW264.7 cells; assay: ELISA of IL-6 from RAW264.7 cells pretreated with kinase inhibitors; type: cell-based; set-up: unit not given here
Method: as §1

[3] = test system: cytosolic tail of RAGE; assay: SPRi binding affinity of SAM domain peptide to RAGE cytosolic tail peptide; settings: synthetic peptides, SAM 250, 500, 1000, 2000 nM, TBS pH 7.5, n=4
Method: To measure the binding affinity of the cytosolic tail of RAGE with the SAM domain of SLP76, a PlexArray HT A100 (Plexera, USA) was used to monitor the whole procedure in real time. Briefly, a chip with well-prepared biomolecular microarray was assembled with a plastic flow cell for sample loading. The synthesized peptide of RAGE cytosolic tail was prepared at 5 mM concentration in Tris-buffered saline (TBS) running buffer (20 mM Tris and 100 mM NaCl [pH 7.5]), and a 10 mM glycine-HCl buffer (pH 2.0) was used as regeneration buffer. The synthesized peptide of SLP76 SAM domain flowed at increasing concentrations (250, 500, 1000, 2000 nM). Binding data were collected and analyzed by a commercial SPRi analysis software (Plexera SPR Data Analysis Module, Plexera, USA).

[4] = test system: IKKα/β phosphorylation, BMDMs; assay: Western blot, IKKα/β phosphorylation in WT or SLP76-/- BMDMs stimulated with HMGB1; type: cell-based, mice; settings: relative to WT Ctrl = 1
Method: (§2) Cultured cells in 6-well plates were harvested, washed twice with PBS, and lysed for 30 min on ice in 150 μl of cell lysis buffer (#9803) from CST (Boston, MA, USA) containing 1 mM PMSF and 2 μg/ml leupeptin. Proteins were quantified with the BCA method. Protein samples were resolved by 10% SDS-PAGE, transferred to a nitrocellulose (NC) membrane (#GE10600002), and blocked for 1 h with 5% nonfat milk in Tris-buffered saline containing 0.1% Tween 20 (TBST) at room temperature. After incubation with a specific primary antibody overnight at 4 °C, the membrane was washed with TBST three times. Then, the membrane was incubated with a secondary antibody for 1 h at room temperature. Enhanced chemiluminescence (ECL) (#32109, Thermo Fisher Scientific, Waltham, MA, USA) was used to visualize the protein bands, and images were acquired in a ChemiDoc™ Imaging System (Bio-Rad, Hercules, CA, USA). Each experiment was repeated at least three times.
(§3) BMDMs were isolated from WT, AGER knockout, and SLP76 knockout mice. Mice were euthanized, and the femur and tibia were isolated and sterilized in 70% ethanol for 15 s and then washed with PBS. A 25-gauge needle was used to flush out the bone marrow with DMEM supplemented with 1% FBS. Bone marrow cells were passed through a cell strainer (70 μm), washed with PBS, and plated into a […] dish at a density of 1 × 10^7 cells/10 ml medium. BMDMs were grown in DMEM supplemented with 10% FBS and M-CSF (#130-094-129) (20 ng/ml) at 37 °C, and the medium was refreshed on day 3. After growth for 7 days, the cells were ready for use in subsequent experiments.

[5] = test system: ERK1/2 phosphorylation, BMDMs; assay: Western blot, ERK1/2 phosphorylation in WT or SLP76-/- BMDMs stimulated with HMGB1; type: cell-based, mice; settings: relative to WT Ctrl = 1
Method: as §2, §3

[6] = test system: p38 MAPK phosphorylation, BMDMs; assay: Western blot, p38 MAPK phosphorylation in WT or SLP76-/- BMDMs stimulated with HMGB1; type: cell-based, mice; settings: for Relative p38 MAPK phosphorylation, Supplementary figure 12a: relative to WT Ctrl = 1
Method: as §2, §3

[7] = AGEs-, inhibitor alone, replicate Exp1, in pg/mL
[8] = AGEs-, inhibitor alone, replicate Exp2
[9] = AGEs-, inhibitor alone, replicate Exp3, in pg/mL
[10] = inhibitor 1 h, then AGEs 100 μg/ml 12 h, replicate Exp1, in pg/mL
[11] = inhibitor 1 h, then AGEs 100 μg/ml 12 h, replicate Exp2, in pg/mL
[12] = inhibitor 1 h, then AGEs 100 μg/ml 12 h, replicate Exp3, in pg/mL
[13] = AGEs-, inhibitor alone, replicate Exp1
[14] = AGEs-, inhibitor alone, replicate Exp3
[15] = inhibitor 1 h, then AGEs 100 μg/ml 12 h, replicate Exp1
[16] = inhibitor 1 h, then AGEs 100 μg/ml 12 h, replicate Exp2
[17] = inhibitor 1 h, then AGEs 100 μg/ml 12 h, replicate Exp3
[18] = AGEs-, inhibitor alone, replicate Exp2, in pg/mL

Molecule: COc1cccc(-c2cc(=O)c3ccccc3o2)c1N [PD98059]
- TNF level in culture medium [1, 7]: 26.755
- TNF level in culture medium [1, 8]: 0 pg/mL
- TNF level in culture medium [1, 9]: 9.578
- TNF level in culture medium [1, 10]: 1779.92
- TNF level in culture medium [1, 11]: 1294.03
- TNF level in culture medium [1, 12]: 1283.56
- IL-6 level in culture medium [2, 13]: 7.69
- IL-6 level in culture medium [2, 8]: 0
- IL-6 level in culture medium [2, 14]: 2.224
- IL-6 level in culture medium [2, 15]: 19.112
- IL-6 level in culture medium [2, 16]: 12.03
- IL-6 level in culture medium [2, 17]: 16.667

Molecule: C[S+]([O-])c1ccc(-c2nc(-c3ccncc3)c(-c3ccc(F)cc3)[nH]2)cc1 (centres unmarked) [SB203580]
- TNF level in culture medium [1, 7]: 86.693
- TNF level in culture medium [1, 18]: 25.813
- TNF level in culture medium [1, 9]: 72.783
- TNF level in culture medium [1, 10]: 2106.86
- TNF level in culture medium [1, 11]: 5252.19
- TNF level in culture medium [1, 12]: 5785.62
- IL-6 level in culture medium [2, 13]: 3.021
- IL-6 level in culture medium [2, 8]: 5.813
- IL-6 level in culture medium [2, 14]: 3.214
- IL-6 level in culture medium [2, 15]: 30.327
- IL-6 level in culture medium [2, 16]: 52.19
- IL-6 level in culture medium [2, 17]: 33.459

Molecule: COc1cc(O)c2c(c1)oc(=O)c1c3cc(O)c(O)cc3oc21 [NF-kB inhibitor]
- TNF level in culture medium [1, 7]: 256.62
- TNF level in culture medium [1, 18]: 271.706
- TNF level in culture medium [1, 9]: 441.431
- TNF level in culture medium [1, 10]: 3097.6
- TNF level in culture medium [1, 11]: 4273.53
- TNF level in culture medium [1, 12]: 5262.53
- IL-6 level in culture medium [2, 13]: 8.8
- IL-6 level in culture medium [2, 8]: 7.706
- IL-6 level in culture medium [2, 14]: 6.631
- IL-6 level in culture medium [2, 15]: 22.657
- IL-6 level in culture medium [2, 16]: 39.53
- IL-6 level in culture medium [2, 17]: 43.441

B1: SAM domain of SLP76: synthesized peptide of SLP76 SAM domain used in SPRi (peptide)
peptide: WDPDSLADYFKKLNYKDCEKAVKKYHIDGARFLNLTENDIQKFPKLRVPILSKLSQEINKNEERRSI
- Binding to cytosolic tail of RAGE [3]: dose-dependent binding

B2: HMGB1: recombinant mouse HMGB1, Abcam (#ab181949) (protein, UniProt P63158 1-215, looked up)
High mobility group protein B1: MGKGDPKKPRGKMSSYAFFVQTCREEHKKKHPDASVNFSEFSKKCSERWKTMSAKEKGKFEDMAKADKARYEREMKTYIPPKGETKKKFKDPNAPKRPPSAFFLFCSEYRPKIKGEHPGLSIGDVAKKLGEMWNNTAADDKQPYEKKAAKLKEKYEKDIAAYRAKGKPDAAKKGVVKAEKSKKKKEEEDDEEDEEDEEEEEEEEDEDEEEDDDDE
- Relative IKKα/β phosphorylation, Supplementary figure 12c ([4]; SLP76-/-, Exp1): 0.8306
- Relative IKKα/β phosphorylation, Supplementary figure 12c ([4]; SLP76-/-, Exp2): 2.523
- Relative IKKα/β phosphorylation, Supplementary figure 12c ([4]; SLP76-/-, Exp3): 0.8014
- Relative IKKα/β phosphorylation, Supplementary figure 12c ([4]; WT, Exp1): 3.067
- Relative IKKα/β phosphorylation, Supplementary figure 12c ([4]; WT, Exp2): 3.67
- Relative IKKα/β phosphorylation, Supplementary figure 12c ([4]; WT, Exp3): 5.409
- Relative ERK1/2 phosphorylation, Supplementary figure 12b ([5]; SLP76-/-, Exp1): 7.033
- Relative ERK1/2 phosphorylation, Supplementary figure 12b ([5]; SLP76-/-, Exp2): 9.087
- Relative ERK1/2 phosphorylation, Supplementary figure 12b ([5]; SLP76-/-, Exp3): 4.787
- Relative ERK1/2 phosphorylation, Supplementary figure 12b ([5]; WT, Exp1): 15.3469
- Relative ERK1/2 phosphorylation, Supplementary figure 12b ([5]; WT, Exp2): 12.0882
- Relative ERK1/2 phosphorylation, Supplementary figure 12b ([5]; WT, Exp3): 9.928
- Activation of proinflammatory signaling pathways ([6]; HMGB1 400 ng/ml, 15 min, p38 MAPK, ERK1/2, IKKα/β, text says RAW264.7 cells, figure BMDMs): activated proinflammatory signaling pathways via SLP76
- Relative p38 MAPK phosphorylation, Supplementary figure 12a ([6]; SLP76-/-, Exp1): 2.8038
- Relative p38 MAPK phosphorylation, Supplementary figure 12a ([6]; SLP76-/-, Exp2): 3.004
- Relative p38 MAPK phosphorylation, Supplementary figure 12a ([6]; SLP76-/-, Exp3): 2.223
- Relative p38 MAPK phosphorylation, Supplementary figure 12a ([6]; WT, Exp1): 7.041
- Relative p38 MAPK phosphorylation, Supplementary figure 12a ([6]; WT, Exp2): 4.728
- Relative p38 MAPK phosphorylation, Supplementary figure 12a ([6]; WT, Exp3): 5.924
